Reference: US9718840B2, “Condensed 5-oxazolidinone derivative” (SUMITOMO DAINIPPON PHARMA CO., LTD., priority 2014, dated 2017)

Legend:
[1] = tested on: Rabbit nail bleeding models; assay: Effect of combined use with antiplatelet drug using rabbit nail bleeding model; assay type: in vivo; settings: alone, dose 0.67 + 1.0 mg/kg + mg/kg/h i.v.
Experimental: Rabbit nail bleeding models were prepared by a modification of the report of Wong et al. (Wong P C. et al., J. Thromb. Haemost. 7: 1313-1320 (2009)). Male rabbits (JW, 1.5 to 3.5 kg) were anesthetized by the inhalation of isoflurane (ISOFLU®, manufactured by DS Pharma Animal Health Co., Ltd.) (introduced anesthesia: 4%, continuous anesthesia: 2 to 3%). For the intravenous administration of a test drug or a vehicle, an indwelling needle was inserted to the auricular vein, and the test drug or the vehicle was promptly intravenously administered (0.67 mL/kg) and then continuously intravenously administered (1 mL/kg/hr). One hour after the start of administration, three posterior toenails were cut and dipped in saline heated to approximately 37° C., and the bleeding time was measured. The bleeding time was defined as a time from the cutting to the arrest of bleeding, and an average value from the three nails was used. The measurement time was 60 minutes at the maximum. If bleeding for 60 minutes or longer was confirmed, the bleeding time was regarded as 60 minutes.

[2] = tested on: Rabbit venous thrombus models; assay: Effect of combined use with antiplatelet drug using rabbit AVST model; assay type: in vivo; settings: alone, dose 0.67 + 1.0 mg/kg + mg/kg/h i.v.
Experimental: Rabbit venous thrombus models were prepared by a modification of the report of Wong et al. (Wong P C. et al., J. Pharmacol. Exp. Ther. 292: 351-357 (2000)). […] A tracheostomy tube was inserted to each rabbit, which was then ventilated using a respirator. For the intravenous administration of a test drug and blood collection, catheters were inserted to the right femoral vein and the right femoral artery, respectively. An arteriovenous shunt filled with saline was inserted to the carotid artery and the jugular vein. […] Also, 4-0 silk thread having a length of 5 cm was indwelled in the arteriovenous shunt. Blood was sent for 30 minutes from the carotid artery to the jugular vein via the arteriovenous shunt. The shunt was removed, and the weight of the silk thread covered with thrombus was measured. The weight of the silk thread measured before the experiment was subtracted from the measured weight, and the obtained value was used as a wet thrombus weight. One hour before the open of the arteriovenous shunt, the test drug or a vehicle was promptly intravenously administered (0.67 mL/kg) and then continuously intravenously administered (1 mL/kg/hr). The continuous injection was continued throughout the experiment. […] STA calcium chloride (manufactured by Roche Diagnostics K.K.) was added in an amount equal thereto, and the time required for coagulation was measured.

male cynomolgus monkey = assay: Cynomolgus monkey aPTT evaluation test; assay type: in vivo
Experimental: The compound of Example 7 was suspended in a 0.5% aqueous methylcellulose solution, and this suspension was orally administered at a dose of 10 mg/5 mL/kg or 30 mg/5 mL/kg to a male cynomolgus monkey fasted for 16 hours. Blood collection for aPTT evaluation was carried out before administration and 0.5, 1, 2, 4, 6, and 24 hours after administration. 0.9 mL of blood was collected using a syringe packed with 100 μL of 3.2% sodium citrate, transferred to a centrifugal tube cooled in ice, and centrifuged at 2100 g at 4° C. for 10 minutes to prepare plasma. After incubation at 37° C. for 6 minutes, an STA reagent Cephascreen (for aPTT assay; manufactured by Roche Diagnostics K.K.) was added in an amount equal to the amount of the plasma, and the mixture was further incubated for 4 minutes. STA calcium chloride (manufactured by Roche Diagnostics K.K.) was added in an amount equal to the amount of the plasma, and the time required for coagulation was measured. Blood collection for the measurement of the compound concentration was carried out 0.5, 1, 2, 4, 6, and 24 hours after administration. 1 mL of blood was collected using a syringe packed with 10 μL of Novo-Heparin Injection, transferred to a centrifugal tube cooled in ice, and centrifuged at 2100 g at 4° C. for 10 minutes to prepare plasma. 200 μL of the prepared plasma was added to a tube containing 600 μL of acetonitrile and mixed for approximately 10 seconds using a vortex mixer. Then, the concentration of the compound of Reference Example 2-6 (a value based on the free form) was measured.

human plasma = assay: Ester metabolism stability test: stability in human plasma; assay type: in vitro ADME; settings: 37° C., 20 minutes
Experimental: 198 μL of human plasma (manufactured by Cosmo Bio Inc.) was added to 2 μL of a DMSO solution containing a 100 μmol/L test substance, and the mixture was incubated at 37° C. for 20 minutes. After the incubation, the metabolic reaction was terminated by the addition of 600 μL of acetonitrile.

[3] = Ester metabolism stability test: metabolite identification by LC-MS
Source text: The metabolites were identified using LC (LC-Nexera X2 manufactured by Shimadzu Corp.)-MS (API4000 manufactured by AB Sciex Pte Ltd.).

[4] = Ester metabolism stability test: stability in human liver; assay type: in vitro ADME; settings: 37° C., 20 minutes, with NADPH
Experimental: A reaction solution containing 5 μL of human liver S9 (manufactured by Sekisui XenoTech, LLC, 20 mg/mL) mixed with 20 μL of 500 mmol/L Kpi (pH 7.4), 40 μL of a 5 mmol/L aqueous solution of NADPH (manufactured by Oriental Yeast Co., Ltd.), and 133 μL of ion-exchange water was added to 2 μL of a DMSO solution containing a 100 μmol/L test substance, and the mixture was incubated at 37° C. for 20 minutes. After the incubation, the metabolic reaction was terminated by the addition of 600 μL of acetonitrile.

[5] = oral 10 mg/kg, 0 hr (before administration)
[6] = oral 30 mg/kg, 0 hr (before administration)
[7] = metabolites identified using LC-MS

In the case of `CC(=O)Oc1ccccc1C(=O)O` [Aspirin], the “Bleeding time” value ([1]; rabbit, maximum 60 minutes) is reported as 1087 ± 522 s, the “Bleeding time (fold-increase)” value ([1]; ratio to vehicle group average) is reported as 1.9 ± 0.9 fold-increase and the “PT (ratio)” value [2] is reported as 0.99 ± 0.01 ratio. For the same compound, the Thrombus weight [2] was 96 ± 9 mg and the “aPTT (ratio)” value [2] was 0.97 ± 0.01 ratio.
For `Cl.N[C@H](CF)[C@H]1CC[C@H](C(=O)N2CC[C@@H](C3CCCCC3)[C@H]2C(=O)Nc2ccc3c(c2)cc2n3C3(CCC3)OC2=O)CC1` [Example 7, (3S)-1-({trans-4-[(1S)-1-amino-2-fluoroethyl]cyclohexyl}carbonyl)-3-cyclohexyl-N-(1′-oxo-1′H-spiro[cyclobutane-1,3′-[1,3]oxazolo[3,4-a]indol]-7′-yl)-L-prolinamide hydrochloride], the “aPTT” value (male cynomolgus monkey; [5]) was 23.8 ± 2.2 s, the “aPTT (ratio)” value (male cynomolgus monkey; [5]) was 1.00 ± 0.00 ratio and the “aPTT” value (male cynomolgus monkey; oral 10 mg/kg, 0.5 hr) was 26.9 ± 3.3 s. For the same compound, the “aPTT (ratio)” value (male cynomolgus monkey; oral 10 mg/kg, 0.5 hr) was 1.13 ± 0.03 ratio, the “aPTT” value (male cynomolgus monkey; oral 10 mg/kg, 1 hr) was 30.5 ± 3.0 s and the “aPTT (ratio)” value (male cynomolgus monkey; oral 10 mg/kg, 1 hr) was 1.29 ± 0.04 ratio. The “aPTT” value (male cynomolgus monkey; oral 10 mg/kg, 2 hr) was 36.5 ± 4.1 s, the “aPTT (ratio)” value (male cynomolgus monkey; oral 10 mg/kg, 2 hr) was 1.53 ± 0.07 ratio and the “aPTT” value (male cynomolgus monkey; oral 10 mg/kg, 4 hr) was 38.5 ± 3.5 s. The “aPTT (ratio)” value (male cynomolgus monkey; oral 10 mg/kg, 4 hr) was 1.62 ± 0.00 ratio, the “aPTT” value (male cynomolgus monkey; oral 10 mg/kg, 6 hr) was 37.5 ± 4.5 s and the “aPTT (ratio)” value (male cynomolgus monkey; oral 10 mg/kg, 6 hr) was 1.57 ± 0.06 ratio. The “aPTT” value (male cynomolgus monkey; oral 10 mg/kg, 24 hr) was 26.1 ± 3.2 s, the “aPTT (ratio)” value (male cynomolgus monkey; oral 10 mg/kg, 24 hr) was 1.10 ± 0.06 ratio and the “aPTT” value (male cynomolgus monkey; [6]) was 23.9 ± 1.6 s. The “aPTT (ratio)” value (male cynomolgus monkey; [6]) was 1.00 ± 0.00 ratio, the “aPTT” value (male cynomolgus monkey; oral 30 mg/kg, 0.5 hr) was 27.6 ± 3.2 s and the “aPTT (ratio)” value (male cynomolgus monkey; oral 30 mg/kg, 0.5 hr) was 1.15 ± 0.10 ratio. The “aPTT” value (male cynomolgus monkey; oral 30 mg/kg, 1 hr) was 32.8 ± 2.8 s, the “aPTT (ratio)” value (male cynomolgus monkey; oral 30 mg/kg, 1 hr) was 1.37 ± 0.03 ratio and the “aPTT” value (male cynomolgus monkey; oral 30 mg/kg, 2 hr) was 36.9 ± 0.8 s. For the same compound, the “aPTT (ratio)” value (male cynomolgus monkey; oral 30 mg/kg, 2 hr) was 1.55 ± 0.07 ratio, the “aPTT” value (male cynomolgus monkey; oral 30 mg/kg, 4 hr) was 39.4 ± 1.4 s and the “aPTT (ratio)” value (male cynomolgus monkey; oral 30 mg/kg, 4 hr) was 1.65 ± 0.12 ratio. The “aPTT” value (male cynomolgus monkey; oral 30 mg/kg, 6 hr) was 39.4 ± 1.5 s, the “aPTT (ratio)” value (male cynomolgus monkey; oral 30 mg/kg, 6 hr) was 1.65 ± 0.12 ratio and the “aPTT” value (male cynomolgus monkey; oral 30 mg/kg, 24 hr) was 34.0 ± 3.3 s. For the same compound, the “aPTT (ratio)” value (male cynomolgus monkey; oral 30 mg/kg, 24 hr) was 1.42 ± 0.05 ratio, the “Residual rate (%) Human plasma” value (human plasma) was under 1% and the “Metabolite formed (conversion by metabolism)” value (“Metabolite formed” below) [3, 7] was “converted to the compound of Reference Example 2-6”. For the same compound, the “Residual rate (%) Human liver S9” value [4] was 71%.
For `CC1(C)OC(=O)c2cc3cc(NC(=O)[C@@H]4[C@H](N5CCCCC5)CCN4C(=O)[C@H]4CC[C@H]([C@H](N)CF)CC4)ccc3n21` [Example 15, (2S,3R)-1-({trans-4-[(1S)-1-Amino-2-fluoroethyl]cyclohexyl}carbonyl)-N-(3,3-dimethyl-1-oxo-1H-[1,3]oxazolo[3,4-a]indol-7-yl)-3-(piperidin-1-yl)pyrrolidine-2-carboxamide 2-trifluoroacetate], the “Residual rate (%) Human plasma” value (human plasma) was 14%, the “Metabolite formed” value ([3]; human, 20 min, 1 μmol/L) was “Example 25” and the “Residual rate (%) Human liver S9” value [4] was 82%.
With `CO[C@H]1CC[C@H]([C@@H]2CCN(C(=O)[C@H]3CC[C@H]([C@H](N)CF)CC3)[C@@H]2C(=O)Nc2ccc3c(c2)cc2n3C(C)(C)OC2=O)CC1.Cl` [Example 10, (3S)-1-({trans-4-[(1S)-1-amino-2-fluoroethyl]cyclohexyl}carbonyl)-N-(3,3-dimethyl-1-oxo-1H-[1,3]oxazolo[3,4-a]indol-7-yl)-3-(trans-4-methoxycyclohexyl)-L-prolinamide hydrochloride] the “Residual rate (%) Human plasma” value (human plasma) was 6.7%, the “Metabolite formed” value [3, 7] was “converted to the compound of Example 24” and the “Residual rate (%) Human liver S9” value [4] was 98%.
With `CC1(C)OC(=O)c2cc3cc(NC(=O)[C@@H]4[C@@H](c5ccccc5)CCN4C(=O)[C@H]4CC[C@H]([C@H](N)CF)CC4)ccc3n21.Cl` [Example 20, (3R)-1-({trans-4-[(1S)-1-amino-2-fluoroethyl]cyclohexyl}carbonyl)-N-(3,3-dimethyl-1-oxo-1H-[1,3]oxazolo[3,4-a]indol-7-yl)-3-phenyl-L-prolinamide] the “Residual rate (%) Human plasma” value (human plasma) was 11%, the “Metabolite formed” value [3, 7] was “Reference Example 20-5” and the “Residual rate (%) Human liver S9” value [4] was 93%.
With `CO[C@H]1CC[C@H]([C@@H]2CCN(C(=O)[C@H]3CC[C@H]([C@H](N)CF)CC3)[C@@H]2C(=O)Nc2ccc3c(c2)cc2n3C(CF)(CF)OC2=O)CC1` [Example 13, (3S)-1-({trans-4-[(1S)-1-amino-2-fluoroethyl]cyclohexyl}carbonyl)-N-[3,3-bis(fluoromethyl)-1-oxo-1H-[1,3]oxazolo[3,4-a]indol-7-yl]-3-(trans-4-methoxycyclohexyl)-L-prolinamide] the “Residual rate (%) Human plasma” value (human plasma) was 21%, the “Metabolite formed” value ([3]; human, 20 min, 1 μmol/L) was “converted to the compound of Example 24” and the “Residual rate (%) Human liver S9” value [4] was 69%.
In the case of `CO[C@H]1CC[C@H]([C@@H]2CCN(C(=O)[C@H]3CC[C@H]([C@H](N)CF)CC3)[C@@H]2C(=O)Nc2ccc3c(c2)cc2n3C3(CCC3)OC2=O)CC1` [Example 14, (3S)-1-({trans-4-[(1S)-1-amino-2-fluoroethyl]cyclohexyl}carbonyl)-3-(trans-4-methoxycyclohexyl)-N-(1′-oxo-1′H-spiro[cyclobutane-1,3′-[1,3]oxazolo[3,4-a]indol]-7′-yl)-L-prolinamide], the “Residual rate (%) Human plasma” value (human plasma) is reported as under 1%, the “Metabolite formed” value ([3]; human, 20 min, 1 μmol/L) is reported as “converted to the compound of Example 24” and the “Residual rate (%) Human liver S9” value [4] is reported as 47%.
With `CC1(C)OC(=O)c2cc3cc(NC(=O)[C@@H]4[C@H](C5CCCCC5)CCN4C(=O)[C@H]4CC[C@H](CN)CC4)ccc3n21.Cl` [Example 17, (3S)-1-{[trans-4-(aminomethyl)cyclohexyl]carbonyl}-3-cyclohexyl-N-(3,3-dimethyl-1-oxo-1H-[1,3]oxazolo[3,4-a]indol-7-yl)-L-prolinamide] the “Residual rate (%) Human plasma” value (human plasma) was 50%, the “Metabolite formed” value ([3]; human, 20 min, 1 μmol/L) was “converted to the compound of Example 23” and the “Residual rate (%) Human liver S9” value [4] was over 99%.
